Results taken from patent US12516060B2, “Solid freebase forms of 5-chloro-2-(4-((2-hydroxy-2-methylpropyl)amino)pyrido[3,4-d]pyridazin-1-yl)phenol for inhibiting NLRP3 and uses thereof” (Ventus Therapeutics U.S., Inc., priority 2023, dated 2026).

Experiments:
Assay type in all cases: physicochemical
[1] = Solvent addition to Amorphous freebase
[2] = Thermal treatment of solid forms; conditions: held 10 min; for XRPD after thermal treatment to 210° C.: 30 to 210° C. at 10° C./min, cooled to 30° C.
Protocol: Thermal treatment of the Amorphous freebase was carried out. 10 mg of amorphous Compound 1 freebase was weighed into a 100 μL DSC pan. The pan was heated at a rate of 10° C./min to 200° C., held at 200° C. for 10 min, then cooled at a rate of 20° C./min to 25° C. Data not shown. The resulting solids were brittle and dark-orange. The solids sampled for XRPD, NMR, and HPLC purity analysis indicated decomposition of Compound 1 freebase rather than maintaining the amorphous state or conversion to a crystalline form.
Thermal treatment of Form III freebase to 210° C. was carried out. Approximately 5 mg of Form III freebase was weighed into a DSC pan. The sample was heated from 30° C. to 210° C. at a rate of 10° C./min, held at 210° C. for 10 min, then cooled from 210° C. to 30° C. at a rate of 20° C./min. […] Data not shown. The peaks at 16.2 °2θ and 20.1 °2θ may have been due to trace amounts of Form II freebase (Example 3).
Thermal treatment of Form IV freebase to 210° C. was carried out. Approximately 5 mg of Form IV freebase was weighed into a DSC pan. The sample was heated from 30° C. to 210° C. at a rate of 10° C./min, held at 210° C. for 10 min, then cooled from 210° C. to 30° C. at a rate of 20° C./min.

[3] = Dry and solvent-drop milling of Form I freebase; conditions: 16 s at 3500 rpm
Protocol: Dry and solvent-drop milling on pure-phase Form I freebase was performed using a ball mill with ¼ inch stainless steel ball as milling media. Approximately 30-35 mg of Form I freebase was weighed into a milling capsule and 1 vol. of solvent (solvent drop) was added. The milling was carried out for 16 s at 3500 rpm. Overall, no new patterns were identified from dry and solvent-drop milling experiments. […] Loss of crystallinity was most evident in the dry-milled sample, though Form I freebase pattern was still readily distinguished.

[4] = Dynamic Vapor Sorption (DVS); conditions: for water uptake, weight gain between 5-95% relative humidity (RH) / hygroscopicity: DVS; for DVS mass change 5-95% RH (wt. %) / water uptake, weight gain between 5-95% relative humidity (RH): 5-95% RH; for hygroscopicity: all adsorbed water lost during the drying cycle; for XRPD pre- and post-DVS: form stability after DVS cycle
Protocol: DVS was performed using TA Instruments Q5000SA. The sample (5-15 mg) was loaded into a metallic quartz sample pan, suspended from a microbalance, and exposed to a humidified stream of nitrogen gas. Weight changes were relative to a matching empty reference pan opposite the sample, suspended from the microbalance. The sample was held for a minimum of 10 min at each level and only progressed to the next humidity level if there was <0.002% change in weight between measurements (interval: 5 s) or 45 min had elapsed (for 5-65% RH) or 2 h had elapsed (for 80 and 95% RH). Mass change by DVS is related to hygroscopicity.

[5] = Solid form stability studies, 75% RH at 40° C. for one week (XRPD and HPLC); conditions: for XRPD (tested material): 75% ± 5% RH at 40° C. ± 2° C. for 1 week; for Purity % a/a (tested material) / Purity % a/a (input material): HPLC; for Purity % a/a (tested material): after 75% ± 5% RH at 40° C. ± 2° C. for 1 week; for Purity % a/a (input material): before stability test
Protocol: Solid form stability studies were performed on Form I-V freebase forms by weighing approximately 10-15 mg of the crystalline material into 4 mL vials and covering with a lab grade task wipe (Kimwipe). These vials were placed inside a stability chamber set at 75%±5% relative humidity (RH) at 40° C.±2° C., where they were left for one week (7 full days). The retrieved material was then analyzed by XRPD and HPLC. In each case, the initial material and tested material were identical by XRPD, with the exception of Form I freebase, where an extra peak at 5.8 °2θ in the initial material was absent after the stability test. HPLC purities of the tested material were essentially unchanged from those of the initial material.

[6] = First set of competitive slurry experiments (Form I-IV freebases); conditions: for relative stability of Forms I-IV freebases: five solvent systems; for evidence of form by XRPD after 2 days: slurries seeded with Forms I-IV, RT or 50° C., all experiments
Protocol: Competitive slurry experiments were carried out with Form I-IV freebases at two temperatures, room temperature (RT) and 50° C., in five solvents/solvent systems. First, saturated solutions of Form I freebase (Example 2) were prepared at each temperature in each solvent system. To make the saturated solutions, Form I freebase was added to 2 mL of solvent already stirring at the desired temperature, either room temperature (RT) or at 50° C. Once a thin slurry was observed, the samples were left to equilibrate overnight. After stirring overnight, the stir bars were removed to allow the solids to settle, and the supernatant was pipetted into clean 4 mL vials containing a 10 mm stir bar.
The supernatant was then left to stir for an additional 15 min prior to adding seeds (approximately 5 mg per form, pre-weighed) of the following patterns: Form I freebase (Example 2), Form II freebase (Example 3), Form III freebase (Example 4) and Form IV freebase (Example 5). Samples of the slurries were plated for XRPD analysis immediately after seeding. The slurries were then sampled again after 2 days and 7 days at the respective temperatures.

[7] = Drying of Patterns overnight at 50° C.; conditions: XRPD
Protocol: For fast-cooling crystallization, Form I freebase was obtained from methanol (MeOH), MeOH:water (9:1 vol.), ethanol (EtOH):water (9:1 vol.), ethyl acetate (EtOAc):N,N-dimethylformamide (DMF) (9:1 vol.), and EtOH:tetrahydrofuran (THF) (3:7 vol.). Form II freebase (Example 3) was obtained from THF, and from acetonitrile:dimethylformamide (DMF) (9:1 vol.) as a mixture with Form I freebase. Pattern C (Example 7) was obtained from isopropanol (IPA):water (9:1 vol.) at −20° C.
Pattern B (Example 7) was obtained from dimethylacetamide (DMAc)/methyl isobutyl ketone (MIBK) after standing overnight at −20° C. […] A mixture of Form III freebase (Example 4) (major) and Form I freebase (minor) was obtained from the direct addition of water into dimethylsulfoxide (DMSO). The ratio of the two patterns was unchanged after drying in vacuo at 50° C. for 4 h. Reverse addition (DMSO/water) gave Form III freebase (Example 4) alone, with no evidence of Form I freebase. Reverse antisolvent addition (dimethylacetamide (DMAc)/water or N-methylpyrrolidone (NMP)/water) gave Form IV freebase (Example 5).
Pattern B freebase was obtained from dimethylacetamide (DMAc)/methyl isobutyl ketone (MIBK) after standing overnight at −20° C. See Example 2, Table 2B. […] The XRPD of Pattern B freebase, taken before drying, is provided in FIG. 7C, and the corresponding signal list is provided in Table 7B.
Pattern C freebase was obtained from isopropanol (IPA):water (9:1 vol.) at −20° C.

SMILES	DVS mass change 5-95% RH (wt. %) [4] [wt. %]	water uptake, weight gain between 5-95% relative humidity (RH) [4]	hygroscopicity [4]	XRPD pre- and post-DVS [4]	XRPD (tested material) [5]	Purity % a/a (tested material) [5] [% a/a]	Purity % a/a (input material) [5] [% a/a]	relative stability of Forms I-IV freebases ([6]; RT and 50° C.)	also measured
CC(C)(O)CNc1nnc(-c2ccc(Cl)cc2O)c2ccncc12 [Amorphous freebase, 5-chloro-2-(4-((2-hydroxy-2-methylpropyl)amino)pyrido[3,4-d]pyridazin-1-yl)phenol]	–	–	–	–	–	–	–	–	form conversion upon addition of solvent ([1]; 5 vol. acetone): Rapid conversion of the Amorphous freebase to Form I freebase; form conversion upon addition of solvent ([1]; toluene): rapid conversion of the Amorphous freebase to Form II freebase; XRPD, NMR, and HPLC purity analysis after thermal treatment ([2]; heated 10° C./min to 200° C., cooled to 25° C.): decomposition
CC(C)(O)CNc1nnc(-c2ccc(Cl)cc2O)c2ccncc12 [Form I freebase, 5-chloro-2-(4-((2-hydroxy-2-methylpropyl)amino)pyrido[3,4-d]pyridazin-1-yl)phenol]	0.5	0.5%	slightly, hygroscopic	remain unchanged	Form I	97.94	98.06	more stable	XRPD after milling ([3]; None (dry)): Form I; XRPD after dry and solvent-drop milling (overall) ([3]; ball mill): remained largely unchanged; XRPD after milling ([3]; solvent drop 1 vol. Acetone): Form I; XRPD after milling ([3]; solvent drop 1 vol. Isopropanol:water (9:1 vol.)): Form I; XRPD after milling ([3]; solvent drop 1 vol. Methanol (MeOH)): Form I; XRPD after milling ([3]; solvent drop 1 vol. Tetrahydrofuran (THF)): Form I; XRPD after milling ([3]; solvent drop 1 vol. acetonitrile:dimethylformamide (8:2 vol.)): Form I
CC(C)(O)CNc1nnc(-c2ccc(Cl)cc2O)c2ccncc12 [Form II freebase, 5-chloro-2-(4-((2-hydroxy-2-methylpropyl)amino)pyrido[3,4-d]pyridazin-1-yl)phenol]	1.03	about 1.03%	slightly, hygroscopic	remained unchanged	Form II	98.12	98.12	more stable	form favored after 7 days ([6]; RT and 50° C., 7 days): favored in most solvent systems; form favored, Form II vs Form I ([6]; overall conclusion of first set): favored over Form I freebase in all solvent systems except acetone:water (7:3 vol.)
CC(C)(O)CNc1nnc(-c2ccc(Cl)cc2O)c2ccncc12 [Form III freebase, 5-chloro-2-(4-((2-hydroxy-2-methylpropyl)amino)pyrido[3,4-d]pyridazin-1-yl)phenol]	0.24	about 0.24%	slightly, hygroscopic	remained unchanged	Form III	99.60	99.54	converted rapidly	XRPD after thermal treatment to 210° C. [2]: conversion to Form I freebase; evidence of form by XRPD after 2 days [6]: no evidence
CC(C)(O)CNc1nnc(-c2ccc(Cl)cc2O)c2ccncc12 [Form IV freebase, 5-chloro-2-(4-((2-hydroxy-2-methylpropyl)amino)pyrido[3,4-d]pyridazin-1-yl)phenol]	1.59	about 1.59%	slightly, hygroscopic	remained unchanged	Form IV	98.53	99.48	converted rapidly	XRPD after thermal treatment to 210° C. [2]: conversion to Form I freebase; evidence of form by XRPD after 2 days [6]: no evidence
CC(C)(O)CNc1nnc(-c2ccc(Cl)cc2O)c2ccncc12 [Pattern B freebase, 5-chloro-2-(4-((2-hydroxy-2-methylpropyl)amino)pyrido[3,4-d]pyridazin-1-yl)phenol]	–	–	–	–	–	–	–	–	form after drying overnight at 50° C. [7]: conversion to Form I freebase; form after drying overnight at 50° C. ([7]; listed as Pattern B): conversion to Form I freebase
CC(C)(O)CNc1nnc(-c2ccc(Cl)cc2O)c2ccncc12 [Pattern C freebase, 5-chloro-2-(4-((2-hydroxy-2-methylpropyl)amino)pyrido[3,4-d]pyridazin-1-yl)phenol]	–	–	–	–	–	–	–	–	form after drying overnight at 50° C. [7]: converted to the low-crystalline version of Form I freebase (Pattern A freebase); form after drying overnight at 50° C. ([7]; listed as Pattern C): converted to Pattern A
